Reference: article PMC3816002 (Biochimica et biophysica acta, 2013)

Target: T1, CIITA (Homo sapiens, UniProt P33076, G420A/G425A/K426E)
T1 sequence (P33076 1-1130 G420A/G425A/K426E): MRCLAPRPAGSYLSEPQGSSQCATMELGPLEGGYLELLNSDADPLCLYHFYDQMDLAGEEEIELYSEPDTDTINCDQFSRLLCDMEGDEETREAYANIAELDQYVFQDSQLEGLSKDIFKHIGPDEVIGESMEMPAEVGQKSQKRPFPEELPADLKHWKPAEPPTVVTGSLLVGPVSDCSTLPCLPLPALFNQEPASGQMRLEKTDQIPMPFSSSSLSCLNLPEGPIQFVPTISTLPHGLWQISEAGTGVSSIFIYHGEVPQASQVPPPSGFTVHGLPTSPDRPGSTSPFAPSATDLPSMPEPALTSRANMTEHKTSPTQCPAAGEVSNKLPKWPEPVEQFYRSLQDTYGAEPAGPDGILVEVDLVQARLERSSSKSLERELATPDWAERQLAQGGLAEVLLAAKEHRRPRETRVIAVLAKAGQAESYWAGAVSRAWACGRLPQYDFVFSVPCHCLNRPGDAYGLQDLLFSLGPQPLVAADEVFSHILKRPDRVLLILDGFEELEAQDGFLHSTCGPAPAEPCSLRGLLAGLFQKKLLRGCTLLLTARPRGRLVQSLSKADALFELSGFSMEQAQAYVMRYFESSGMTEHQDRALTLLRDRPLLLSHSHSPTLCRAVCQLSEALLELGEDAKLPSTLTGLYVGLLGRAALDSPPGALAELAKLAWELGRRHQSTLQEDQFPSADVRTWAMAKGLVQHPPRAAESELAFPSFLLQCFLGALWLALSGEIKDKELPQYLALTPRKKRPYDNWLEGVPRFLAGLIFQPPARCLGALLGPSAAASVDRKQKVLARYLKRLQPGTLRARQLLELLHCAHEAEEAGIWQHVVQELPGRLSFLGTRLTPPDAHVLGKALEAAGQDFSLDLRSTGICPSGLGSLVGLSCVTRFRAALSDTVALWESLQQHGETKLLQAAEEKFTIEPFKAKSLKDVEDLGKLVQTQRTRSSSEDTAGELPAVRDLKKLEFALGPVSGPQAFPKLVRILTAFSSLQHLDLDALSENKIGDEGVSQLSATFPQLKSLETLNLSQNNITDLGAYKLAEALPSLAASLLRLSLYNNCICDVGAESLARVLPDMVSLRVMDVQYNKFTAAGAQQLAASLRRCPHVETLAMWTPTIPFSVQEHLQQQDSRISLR
Assay: […] autophosphorylation kinase assay, SDS-PAGE, phosphorimager
Format: biochemical
Conditions: labelled compound; 5 mM MnCl2, 5 mM MgCl2, pH 7.5, 30 °C

Nc1ncnc2c1ncn2[C@@H]1O[C@H](COP(=O)(O)OP(=O)(O)OP(=O)(O)O)[C@@H](O)[C@H]1O [ATP]
32P autophosphorylation kinase assay, SDS-PAGE, phosphorimager: No loss of kinase activity was detected in the putative ATP binding site mutant
